Assay [1] concerns the target T1, Human 5-HT1A Receptor (Homo sapiens, UniProt P08908).
T1 construct: expressed in transfected cells; host or cells: CHO cells (Chinese hamster ovary), stably transfected
T1 sequence (P08908 1-422): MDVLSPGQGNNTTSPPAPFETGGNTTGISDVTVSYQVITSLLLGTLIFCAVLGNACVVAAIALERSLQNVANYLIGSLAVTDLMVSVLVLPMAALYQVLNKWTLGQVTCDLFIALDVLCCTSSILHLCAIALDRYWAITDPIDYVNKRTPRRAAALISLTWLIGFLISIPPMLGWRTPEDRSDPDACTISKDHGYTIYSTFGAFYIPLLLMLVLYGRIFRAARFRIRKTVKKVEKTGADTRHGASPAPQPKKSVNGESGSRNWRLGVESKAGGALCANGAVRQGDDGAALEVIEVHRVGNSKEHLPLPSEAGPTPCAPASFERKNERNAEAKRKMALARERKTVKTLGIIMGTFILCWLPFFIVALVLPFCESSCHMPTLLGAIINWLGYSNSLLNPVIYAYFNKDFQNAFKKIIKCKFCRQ
Kind of assay: 8-OH-DPAT binding, human 5-HT1A receptor cell line (displacement of [3H]-OHDPAT, stably transfected CHO cells). As to conditions: [3H]-OHDPAT 1.5 nM, read-out: h5HT1A Affinity Ki (nM) (Example 17). The procedure: Affinity for the serotonin 5-HT1A receptor was established by testing each compound's ability to displace [^3H]-OHDPAT (dipropylaminotetralin) from the 5-HT1A serotonin receptor following a modification of the procedure of Hall et al., J. Neurochem. 44:1685-1696 (1985). Stably transfected Chinese hamster ovary (CHO) cells were plated and grown in Dulbecco's Modified Eagle's Medium (DMEM) containing 10% heat inactivated fetal bovine serum (FBS) and non-essential amino acids. Cells were scraped off the plate, transferred to centrifuge tubes, and washed twice by centrifugation (2000 rpm for 10 minutes at 4° C.) in buffer (50 mM Tris, pH 7.5). The resulting pellets were aliquoted and stored at −80° C. On the day of assay, the cells were thawed on ice, and re-suspended in buffer. The binding assay was performed in a 96-well microtiter plate in a total volume of about 250 μL. Non-specific binding was determined in the presence of 10 μM 5-HT; the final radio ligand concentration was 1.5 nM. Following a 30 minute incubation at room temperature, the reaction was terminated by the addition of ice cold buffer and rapid filtration through a GF/B filter presoaked for 30 minutes in 0.5% polyethyleneimine (PEI). Compounds were initially tested in a single point assay to determine percent inhibition at 1 μM, 0.1 μM, and 0.01 μM. Subsequently, Ki values were determined for compounds defined to be active. Percent inhibition Ki was determined by RFComp (Lundon Software, Chagrin Falls, Ohio), with serotonin and 8-OH-DPAT as the reference compounds.
High affinity for the receptor is evidence of a compound's ability to directly modulate activity at the 5-HT1A receptor.
For orientation: In a radioligand displacement assay an active substance lowers the binding of a labelled ligand.

Assay [2] addresses T1, Human 5-HT1A Receptor. Kind of assay: cAMP radioimmunoassay (RIA) in human 5-HT1A receptor cell line, inhibition of forskolin stimulated cAMP. It counts as cell-based. As to conditions: forskolin (1 μM) stimulated cAMP, stably transfected CHO cells; read-out: h5HT1A cAMP EC50 (nM) (Example 19). The procedure:
Certain effects of 5-HT (e.g., certain effects mediated by the interaction of 5-HT with the 5-HT1A receptor) are mediated by cAMP. To test the ability of compounds described herein to modulate cAMP, a radioimmunoassay (RIA) method was used. Briefly, stably transfected CHO cells were grown in DMEM containing 10% heat inactivated FBS and non-essential amino acids. The cells were plated at a density of 10^6 cells per well in a 96-well plate and incubated for 2 days in a CO2 incubator. On the second day, the medium was replaced with 0.1 ml Krebs and incubated 15 minutes at 37° C. The medium was then replaced with Krebs buffer containing 500 μM isobutylmethylxanthine (IBMX) and incubated for approximately 5 minutes at 37° C. Wells were treated with forskolin (1 μM final concentration) followed immediately by test compound (0.1 and 1 μM for the initial screen) and incubated for an additional 10 minutes at 37° C. The reaction was terminated by removal of the medium and the addition of 0.5 ml ice cold assay buffer (supplied in the RIA kit). Plates were stored at −20° C. prior to assessment of cAMP formation by RIA. The cAMP kit was obtained from Amersham (Piscataway, N.J.) and the RIA was performed as per the kit instructions. In the initial screen, percent inhibition of forskolin stimulated cAMP was measured. […] These compounds behaved as either full agonists or partial agonists. 5-HT, BMY 7378, buspirone, and 8-OH-DPAT were used as reference compounds.
All compounds tested inhibited the forskolin-stimulated increase in […].

The next assay has as its target T2, serotonin transporter (Rattus norvegicus, UniProt P31652).
T2 construct: frontal cortical membranes prepared from male Sprague Dawley rats; from tissue; host or cells: rat frontal cortex membranes (male Sprague Dawley)
The experiment in a line: 3H-paroxetine binding to rat frontal cortical membranes, affinity for the serotonin transporter. As to conditions: 3H-paroxetine 0.1 nM, male Sprague Dawley rat frontal cortical membranes; read-out: 5HT Uptake r5HT-T Ki (nM) (Example 18). The procedure:
A protocol similar to that used by Cheetham et al. (Neuropharmacol. 32:737-743, 1993) was used to determine the affinity of compounds for the serotonin transporter (i.e., by determining the relative ability of a compound to displace ^3H-paroxetine from male rat frontal cortical membranes). Briefly, frontal cortical membranes prepared from male Sprague Dawley rats were incubated with ^3H-paroxetine (0.1 nM) for 60 minutes at 25° C. All tubes also contained either vehicle, test compound (one to eight concentrations), or a saturating concentration of fluoxetine (10 μM) to define […]. All reactions were terminated by the addition of ice cold Tris buffer followed by rapid filtration using a Tom Tech filtration device to separate bound from free ^3H-paroxetine. Bound radioactivity was quantitated using a Wallac 1205 Beta Plate® counter. Nonlinear regression analysis was used to determine IC50 values which were converted to Ki values using the method of Cheng and Prusoff (Biochem. Pharmacol. 22: 3099-3108, 1973); […].
This affinity translates to the blockade of 5-HT uptake, i.e., the ability of a compound increase synaptic 5-HT levels and to act like an SSRI.

For a further assay, the target named is T3, Human 5-HT Transporter (Homo sapiens, UniProt P31645).
T3 construct: endogenous in cells; host or cells: Jar cells (human carcinoma cell line), treated with staurosporine
T3 sequence (P31645 whole entry): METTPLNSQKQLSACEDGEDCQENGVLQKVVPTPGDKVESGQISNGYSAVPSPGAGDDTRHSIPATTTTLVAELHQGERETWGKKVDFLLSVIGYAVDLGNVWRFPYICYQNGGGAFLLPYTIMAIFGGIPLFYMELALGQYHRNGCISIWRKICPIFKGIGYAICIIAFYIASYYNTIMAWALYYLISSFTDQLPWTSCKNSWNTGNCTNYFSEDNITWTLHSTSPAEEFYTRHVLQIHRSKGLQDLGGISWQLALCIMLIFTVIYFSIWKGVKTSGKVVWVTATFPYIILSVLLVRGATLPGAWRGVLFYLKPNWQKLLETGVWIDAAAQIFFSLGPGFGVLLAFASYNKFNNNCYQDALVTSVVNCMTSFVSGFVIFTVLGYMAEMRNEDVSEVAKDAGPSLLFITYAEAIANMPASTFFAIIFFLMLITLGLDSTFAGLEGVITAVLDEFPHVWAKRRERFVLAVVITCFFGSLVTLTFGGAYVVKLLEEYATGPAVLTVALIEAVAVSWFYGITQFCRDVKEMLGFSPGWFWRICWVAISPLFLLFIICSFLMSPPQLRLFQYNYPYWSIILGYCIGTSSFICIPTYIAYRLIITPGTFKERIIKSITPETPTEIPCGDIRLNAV
The experiment in a line: Inhibition of 3H-5-HT uptake by Jar cells possessing the human 5-HT transporter. It counts as cell-based. As to conditions: Jar cells treated with staurosporine, read-out: 5HT Uptake h5HT-T IC50 (nM) (Example 20). The procedure: [Staurosporine greatly increases the expression of the 5-HT-Transporter.] On the day of assay, vehicle, excess of fluoxetine, or test compound was added to various wells on the plate. ^3H-5-HT was then aliquoted into all wells and the samples were incubated at 37° C. for 5 minutes. The wells were then washed with ice cold 50 mM Tris HCl (pH 7.4) buffer and aspirated to remove free ^3H-5-HT. 25 μL 0.25 M NaOH was then added to each well to lyse the cells and 75 μL scintillation cocktail (Microscint™ 20) was added prior to quantitation on a Packard TopCount® machine. Tubes with vehicle represent total possible uptake, radioactivity counted in tubes with excess fluoxetine represent nonspecific binding/uptake and were subtracted from the total possible uptake to give total possible specific uptake. This nonspecific binding (usual low in number) was then subtracted from the counts obtained in wells with various test compounds (or different concentrations of a test compound) resulting in uptake in the presence of drug. Specific uptake was then expressed as a percent of control values and was analyzed using nonlinear regression analysis (Prizm) to determine IC50 values. If the compound was active in inhibiting 5-HT uptake, its counts will be close to that obtained with fluoxetine.
This blockade, in vivo, would be expected to result in an increase in extracellular 5-HT concentrations.

T2 sequence (P31652 whole entry): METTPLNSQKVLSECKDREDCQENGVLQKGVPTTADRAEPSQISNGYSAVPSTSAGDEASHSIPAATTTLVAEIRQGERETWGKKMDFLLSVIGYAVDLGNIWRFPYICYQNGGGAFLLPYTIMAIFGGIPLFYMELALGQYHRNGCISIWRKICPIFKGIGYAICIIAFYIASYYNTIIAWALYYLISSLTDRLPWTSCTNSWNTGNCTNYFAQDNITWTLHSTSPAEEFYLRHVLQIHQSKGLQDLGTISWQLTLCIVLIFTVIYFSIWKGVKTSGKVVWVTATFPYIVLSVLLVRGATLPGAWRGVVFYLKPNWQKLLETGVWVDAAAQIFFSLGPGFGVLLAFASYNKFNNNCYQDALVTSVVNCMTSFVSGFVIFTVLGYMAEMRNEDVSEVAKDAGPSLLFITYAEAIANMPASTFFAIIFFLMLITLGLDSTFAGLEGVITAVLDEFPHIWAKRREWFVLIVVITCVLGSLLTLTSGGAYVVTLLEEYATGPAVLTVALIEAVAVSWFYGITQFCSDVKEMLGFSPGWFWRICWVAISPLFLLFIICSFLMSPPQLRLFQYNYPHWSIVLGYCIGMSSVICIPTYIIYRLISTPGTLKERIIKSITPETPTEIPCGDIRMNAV

As for `Cc1ccc2c3c(ccc2n1)OC[C@H](CNCCCN1CCOc2ccc(F)cc21)O3` [Example 11, 3-(6-fluoro-2,3-dihydro-4H-1,4-benzoxazin-4-yl)-N-{[(2S)-8-methyl-2,3-dihydro[1,4]dioxino[2,3-f]quinolin-2-yl]methyl}propan-1-amine], the Ki (usually the equilibrium dissociation constant of an inhibitor or competing ligand from its target) at Human 5-HT1A Receptor [1] was determined as 2.77 nM; at serotonin transporter it was 14.7 nM. Moreover, the half-maximal effective concentration (EC50) (commonly the concentration needed to bring the measured effect to its halfway point) at Human 5-HT1A Receptor [2] is 1.43 nM. The IC50 (in general, the concentration at which inhibition is half-maximal) at Human 5-HT Transporter worked out at 4710 nM.
Take `Cc1ccc2c3c(ccc2n1)OC[C@H](CNCCCCN1CCc2ccc(F)cc21)O3` [Example 14, 4-(6-fluoro-2,3-dihydro-1H-indol-1-yl)-N-{[(2S)-8-methyl-2,3-dihydro[1,4]dioxino[2,3-f]quinolin-2-yl]methyl}butan-1-amine]: the Ki at Human 5-HT1A Receptor [1] was determined as 0.19 nM; on serotonin transporter, 3.3 nM. The EC50 at Human 5-HT1A Receptor [2] was determined as 1.66 nM. In addition, at Human 5-HT Transporter, the IC50 was determined as 161 nM.
Consider `Cc1ccc2c3c(ccc2n1)OC[C@H](CNCCCCN1CCCc2ccccc21)O3` [Example 15, 4-(3,4-dihydroquinolin-1(2H)-yl)-N-{[(2S)-8-methyl-2,3-dihydro[1,4]dioxino[2,3-f]quinolin-2-yl]methyl}butan-1-amine], for which the Ki on Human 5-HT1A Receptor [1] was found to be 0.66 nM; at serotonin transporter it was 11.8 nM. In addition, the EC50 at Human 5-HT1A Receptor [2] came to 9.25 nM. The IC50 on Human 5-HT Transporter was found to be 438 nM.

The record behind these values is patent publication US20080139546A1, “Tetrahydroquinoline, indoline, and related aniline derivatives of heterocycle-fused benzodioxan methylamines” (Wyeth, priority 2006, published 2008).
